Measured values taken from US8242054B2, “Plant growth regulator composition” (Snow Brand Seed Co., Ltd., priority 2008, dated 2012).

What was measured:
[1] = system: adzuki bean section; test: adzuki bean root promotion assay (section immersion treatment, adventitious roots counted); format: in vivo; settings: for Relative value (%): 0/0 ppm group = 100; for Ratio to untreated group (%): untreated group = 100
Description: An aqueous solution of DL-phenyllactic acid (Sigma-Aldrich Japan) and L-tryptophan (Wako Pure Chemical Industries, Ltd.) was prepared so that the total concentration of the compounds was 400 ppm and adjusted to pH 7 with hydrochloric acid, and the solution was subjected to an adzuki bean root promotion assay (Itagaki et al. 2003. Biological activities and structure-activity relationship of substitution compounds of N-[2-(3-indolyl)ethyl]succinamic acid and N-[2-(1-naphthyl)ethyl]succinamic acid, derived from a new category of root-promoting substance, N-(phenethyl) succinamic acid analogs. Plant Soil 255: 67-75). The base of an adzuki section was immersed in the test solution for 72 hours, and adventitious roots generated 7 days after immersion were counted. The repetition number was 5.
To study the cooperation effect of phenyllactic acid and aromatic amino acids other than L-tryptophan, each of 1 mM of DL-phenyllactic acid (Sigma-Aldrich Japan), L-tryptophan (Wako Pure Chemical Industries, Ltd.), L-phenylalanine (Wako Pure Chemical Industries, Ltd.), and L-tyrosine (Wako Pure Chemical Industries, Ltd.), and aqueous solutions obtained by adding the amino acids to DL-phenyllactic acid were prepared, and subjected to the adzuki bean root promotion assay in the same way as in Example 1.
To compare effects of combinations of tryptophan enantiomers and phenyllactic acid enantiomers, aqueous solutions of 400 ppm of L-tryptophan, D-tryptophan (Wako Pure Chemical Industries, Ltd.), L-phenyllactic acid (Sigma-Aldrich Japan), and D-phenyllactic acid (Sigma-Aldrich Japan) were prepared. Separately, aqueous solutions of 200 ppm of each of the tryptophan enantiomers and 200 ppm of each of the […] enantiomers were prepared and subjected to the adzuki bean root promotion assay in the same way as in Example 1. […]

[2] = system: adzuki bean section; test: as above; format: in vivo; settings: for Relative value (%): 0/0 ppm group = 100; for Number of roots: 72 h immersion, counted 7 days after immersion
[3] = system: plants; settings: background art; cited from earlier work
[4] = Table 5: single enantiomer 400 ppm
[5] = Table 4: each component present at 1 mM
[6] = Table 3: L-tryptophan 0 ppm, DL-phenyllactic acid 20 ppm
[7] = Table 3: L-tryptophan 1200 ppm, DL-phenyllactic acid 0 ppm

Row | Structure (SMILES) | Number of roots [1, 4] | Relative value (%) [1, 4] | Number of roots [1, 5] | Ratio to untreated group (%) [1, 5] | further results
1 | O=C(O)[C@@H](O)Cc1ccccc1 [D-phenyllactic acid] | 27.6 | 192% |  |  | 
2 | O=C(O)C(O)Cc1ccccc1 (racemic) [DL-phenyllactic acid] |  |  | 18.8 | 132% | root promoting effect (in words) ([1]; Table 1, only DL-phenyllactic acid): slight root promoting effect; Relative value (%) ([1]; Table 1: L-tryptophan 0 ppm, DL-phenyllactic acid 400 ppm): 137%; Number of roots ([1]; Table 1: L-tryptophan 0 ppm, DL-phenyllactic acid 400 ppm, 72 h immersion, counted 7 days after immersion): 22.4; Relative value (%) ([1]; Table 2: L-tryptophan 0 ppm, DL-phenyllactic acid 400 ppm): 268%; Number of roots ([1]; Table 2: L-tryptophan 0 ppm, DL-phenyllactic acid 400 ppm, 72 h immersion, counted 7 days after immersion): 32.2; Ratio to group treated with only DL-phenyllactic acid (%) ([1]; Table 4: each component present at 1 mM, 1 mM DL-phenyllactic acid only = 100): 100%; Relative value (%) [2, 6]: 107%; Number of roots [2, 6]: 11.6
3 | N[C@@H](Cc1ccc(O)cc1)C(=O)O [L-tyrosine] |  |  | 13.6 | 96% | 
4 | N[C@@H](Cc1c[nH]c2ccccc12)C(=O)O [L-tryptophan] | 22.2 | 154% | 19.2 | 135% | Relative value (%) ([1]; Table 1: L-tryptophan 400 ppm, DL-phenyllactic acid 0 ppm): 113%; Number of roots ([1]; Table 1: L-tryptophan 400 ppm, DL-phenyllactic acid 0 ppm, 72 h immersion, counted 7 days after immersion): 18.6; Relative value (%) ([1]; Table 3: L-tryptophan 400 ppm, DL-phenyllactic acid 0 ppm): 98%; Number of roots ([1]; Table 3: L-tryptophan 400 ppm, DL-phenyllactic acid 0 ppm, 72 h immersion, counted 7 days after immersion): 10.6; Relative value (%) [2, 7]: 139%; Number of roots [2, 7]: 15.0
5 | N[C@H](Cc1c[nH]c2ccccc12)C(=O)O [D-tryptophan] | 24.2 | 168% |  |  | 
6 | N[C@@H](Cc1ccccc1)C(=O)O [L-phenylalanine] |  |  | 16.6 | 117% | 
7 | O=C(O)[C@@H](O)Cc1ccccc1 [L-phenyllactic acid] | 19.4 | 135% |  |  | 
8 | O=C(O)C(O)Cc1ccccc1 (stereo not shown) [phenyllactic acid, 3-phenyllactic acid] |  |  |  |  | root promoting effect on plants (in words) [3]: the effect is weak
